The source of these data is patent publication US9359311B2, “Substituted aromatic oligomers” (NEUROSCIOS GMBH, priority 2011, dated 2016).

For experiment [1], the target named is T1, biotinylated Aβ1-42 (Homo sapiens, UniProt P05067).
T1 construct: To assure monomerisation of biotinylated Aβ1-42 (Anaspec #23523-0.5) the peptide was thoroughly monomerised; purchased Anaspec 23523-0.5
Briefly: Inhibition of Abeta oligomerisation (biotinylated Aβ1-42, neutravidin plate, streptavidin-HRP). The experiment is classed as biochemical. Particulars: inhibition of Aβ1-42 aggregation, approximately 12 nM Aβ1-42, PBS pH 7.4, 2% DMSO, 30 min RT.

For experiment [2], the system named is primary chicken neurons. Kind of experiment: Inhibition of Abeta 1-42 toxicity on primary chicken neurons (MTT). The experiment is classed as cell-based. Set-up: key: No: no effect; +: minor positive effect on cell viability in the presence of aggregated Aβ 1-42; ++: medium positive effect on cell viability in the presence of aggregated Aβ 1-42; +++: strong positive effect on cell viability in the presence of aggregated Aβ 1-42. On the procedure:
One-day-old fertilized eggs are stored under appropriate conditions until start of breeding. On embryonic day 0 eggs are transferred to the breeding incubator and under turning, kept at 37.8° C. and 55% humidity until embryonic day eight. Neurons are prepared as follows: In short, embryos are transferred to a plastic dish, and decapitated. Both brain hemispheres are removed, collected and any loose tissue removed. Hemispheres are mechanically dissociated and 4.8×10^4 cells per well (96-well plates) are seeded in a volume of 160 μl.
Aβ1-42 (MW 4514.1) was obtained from American Peptide Company as a lyophilized powder. A stock solution of 340 μM Aβ1-42 was prepared in 50 mM Tris-Buffer, 150 mM NaCl, pH7.6 according to the manufacturer's instructions. After sonication, the stock solution is diluted 1:1 with the test compounds to obtain a concentration of 170, 17 and 1.7 μM. After aggregation at 4° C. for 48 h, the solutions are sonicated again prior to application to the cells. The final concentration of Aβ1-42 applied to the primary chicken neurons is 10 μM.
Aβ1-42 aggregated together with compound for 48 hrs was applied to chicken neurons at DIV4 (days in vitro) and analyzed at DIV10 (144 hrs) and all others were applied to chicken neurons at DIV6 and analysed at DIV10 (96 hrs).
Viability of cultures is determined by the MTT assay. The MTT assay allows for the measurement of the mitochondrial dehydrogenase activity which reduces yellow MTT to dark blue formazan crystals. Since this reaction is catalyzed in living cells only this assay is used for the determination of cell viability. MTT solution is added to each well in a final concentration of 0.5 mg/ml. After 2 hours the MTT containing medium is aspired. Cells are lysed in 3% SDS and the formazan crystals are dissolved in isopropanol/HCl. Optical density is measured with a plate-reader at wavelength 570 nm. Cell survival rate is expressed as a percentage of optical density (OD) relative to control cells not treated with Aβ or compound.

Experiment [3] concerns prion. Particulars: Ref: JBC doi: 10.1074/jbc.M112.355958; cited from earlier work.
[4] abbreviates: Conc. 0.1 μM, 10 μM Aβ1-42 aggregated together with compound for 48 h.
The mark [5] stands for this setting: Conc. 1 μM, 10 μM Aβ1-42 aggregated together with compound for 48 h.
[6] abbreviates: Conc. 10 μM, 10 μM Aβ1-42 aggregated together with compound for 48 h.

T1 sequence (P05067 672-713 limits assumed): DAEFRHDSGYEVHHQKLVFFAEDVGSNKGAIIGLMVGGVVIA

As usually defined, the IC50 is the point on the concentration scale where inhibition reaches its midpoint. In turn, `Nc1c(/N=N/c2ccc(-c3ccc(/N=N/c4cc(S(=O)(=O)O)c5ccccc5c4N)cc3)cc2)cc(S(=O)(=O)O)c2ccccc12` [Congo Red, reference compound] gave an IC50 in experiment [1] of 1580 nM. Also, the “Rescue of Abeta toxicity (MTT)” value in experiment [2] (Conc. 5 μM, 10 μM Aβ1-42) is listed as “++”.

With `O=C(O)c1ccc(-c2cc(CCO)c(-c3ccc(-c4sc(-c5ccc(C(=O)O)s5)cc4CCO)s3)s2)s1` [Example 5, 5-(5-{5-[5-(5-Carboxythiophen-2-yl)-3-(2-hydroxyethyl)thiophen-2-yl]thiophen-2-yl}-4-(2-hydroxyethyl)thiophen-2-yl)thiophene-2-carboxylic acid], 3980 nM corresponded to half-maximal inhibition in experiment [1] (IC50). Besides, the results for the “Rescue of Abeta toxicity (MTT)” value in experiment [2] (setting [4]), in experiment [2] (setting [5]) and in experiment [2] (setting [6]) were “no”, “++” and “+”, respectively.

Take `O=C(O)Cc1cc(-c2ccc(-c3cc(CC(=O)O)c(-c4ccc(C(=O)O)s4)s3)s2)sc1-c1ccc(C(=O)O)s1` [Example 6, 5-[3-(Carboxymethyl)-5-{5-[4-(carboxymethyl)-5-(5-carboxythiophen-2-yl)thiophen-2-yl]thiophen-2-yl}thiophen-2-yl]thiophene-2-carboxylic acid]: in experiment [1], the IC50 is 7940 nM. Further, the entries for the “Rescue of Abeta toxicity (MTT)” value in experiment [2] (setting [4]), in experiment [2] (setting [5]) and in experiment [2] (setting [6]) were “++”, “+” and “+++”, respectively.

Turning to `O=C(O)Cc1cc(-c2ccc(C(=O)O)cc2)sc1-c1ccc(-c2sc(-c3ccc(C(=O)O)cc3)cc2CC(=O)O)s1` [Example 9, 4-[4-(Carboxymethyl)-5-{5-[3-(carboxymethyl)-5-(4-carboxyphenyl)thiophen-2-yl]thiophen-2-yl}thiophen-2-yl]benzoic acid], 15800 nM corresponded to half-maximal inhibition in experiment [1] (IC50). Further, the “Rescue of Abeta toxicity (MTT)” value in experiment [2] (setting [5]) is listed as “++”; in experiment [2] (setting [6]) it was “+++”.

Consider `CS(=O)(=O)c1ccc(-c2cc(CC(=O)O)c(-c3ccc(-c4sc(-c5ccc(S(C)(=O)=O)cc5)cc4CC(=O)O)s3)s2)cc1` [Example 16, 2-(2-{5-[3-(Carboxymethyl)-5-(4-methanesulfonylphenyl)thiophen-2-yl]thiophen-2-yl}-5-(4-methanesulfonylphenyl)thiophen-3-yl)acetic acid], for which the IC50 in experiment [1] was 5010 nM. The “Rescue of Abeta toxicity (MTT)” value in experiment [2] (setting [5]) and in experiment [2] (setting [6]) was “+++” in each case.

Compound `O=C(O)Cc1ccsc1-c1ccc(-c2sc(-c3cc(CC(=O)O)c(-c4ccc(-c5sccc5CC(=O)O)s4)s3)cc2CC(=O)O)s1` [Example 17, 2-(2-{5-[3-(Carboxymethyl)-5-[4-(carboxymethyl)-5-{5-[3-(carboxymethyl)thiophen-2-yl]thiophen-2-yl}thiophen-2-yl]thiophen-2-yl]thiophen-2-yl}thiophen-3-yl)acetic acid] had an IC50 in experiment [1] of 5010 nM. In addition, the “Rescue of Abeta toxicity (MTT)” value in experiment [2] (setting [4]) is “+”; in experiment [2] (setting [5]) it was “no”; in experiment [2] (setting [6]), “+++”.

`O=C(O)Cc1cc(-c2ccc(-c3ccc(C(=O)O)s3)s2)sc1-c1ccc(-c2sc(-c3ccc(-c4ccc(C(=O)O)s4)s3)cc2CC(=O)O)s1` [Example 18, 5-{5-[4-(Carboxymethyl)-5-{5-[3-(carboxymethyl)-5-[5-(5-carboxythiophen-2-yl)thiophen-2-yl]thiophen-2-yl]thiophen-2-yl}thiophen-2-yl]thiophen-2-yl}thiophene-2-carboxylic acid]: in experiment [1], half-maximal inhibition (IC50) required 1260 nM. Moreover, the “Rescue of Abeta toxicity (MTT)” value in experiment [2] (setting [4]) is given as “++”; in experiment [2] (setting [5]), “+”; in experiment [2] (setting [6]) it was “no”.

In experiment [1], `O=C(O)Cc1cc(-c2ccccc2)sc1-c1ccc(-c2sc(-c3ccccc3)cc2CC(=O)O)s1` [Example 21, 2-(2-{5-[3-(Carboxymethyl)-5-phenylthiophen-2-yl]thiophen-2-yl}-5-phenylthiophen-3-yl)acetic acid] gave an IC50 of 2510 nM. Moreover, the “Rescue of Abeta toxicity (MTT)” value was “no” in experiment [2] (setting [4]), “++” in experiment [2] (setting [5]) and “no” in experiment [2] (setting [6]).

Compound `O=C(O)Cc1ccsc1-c1ccc(-c2sc(-c3ccc(-c4cc(CC(=O)O)c(-c5ccc(-c6sccc6CC(=O)O)s5)s4)cc3)cc2CC(=O)O)s1` [Example 33, 2-(2-{5-[3-(Carboxymethyl)-5-{4-[4-(carboxymethyl)-5-{5-[3-(carboxymethyl)thiophen-2-yl]thiophen-2-yl}thiophen-2-yl]phenyl}thiophen-2-yl]thiophen-2-yl}thiophen-3-yl)acetic acid] showed an IC50 in experiment [1] of 794 nM. For the same compound, the “Rescue of Abeta toxicity (MTT)” value in experiment [2] (setting [4]) was “no”; in experiment [2] (setting [5]) it was “++”; in experiment [2] (setting [6]), “no”.

Take `O=C(O)Cc1ccsc1-c1ccc(-c2sc(-c3cccc(-c4cc(CC(=O)O)c(-c5ccc(-c6sccc6CC(=O)O)cc5)s4)c3)cc2CC(=O)O)cc1` [Example 39, 2-(5-{3-[4-(Carboxymethyl)-5-{4-[3-(carboxymethyl)thiophen-2-yl]phenyl}thiophen-2-yl]phenyl}-2-{4-[3-(carboxymethyl)thiophen-2-yl]phenyl}thiophen-3-yl)acetic acid]: in experiment [1], it took 794 nM to reach half-maximal inhibition (IC50). Moreover, the “Rescue of Abeta toxicity (MTT)” value was “+” in experiment [2] (setting [4]), “+” in experiment [2] (setting [5]) and “no” in experiment [2] (setting [6]).

In turn, `CS(=O)(=O)c1ccc(-c2ccc(-c3sc(-c4cc(CC(=O)O)c(-c5ccc(-c6ccc(S(C)(=O)=O)cc6)s5)s4)cc3CC(=O)O)s2)cc1` [Example 50, 2-{5-[4-(Carboxymethyl)-5-[5-(4-methanesulfonylphenyl)thiophen-2-yl]thiophen-2-yl]-2-[5-(4-methanesulfonylphenyl)thiophen-2-yl]thiophen-3-yl}acetic acid] gave an IC50 in experiment [1] of 2510 nM. For the same compound, the “Rescue of Abeta toxicity (MTT)” value is recorded as “no” in experiment [2] (setting [4]), “+++” in experiment [2] (setting [5]) and “+++” in experiment [2] (setting [6]).

The compound `O=C(O)Cc1ccccc1-c1ccc(-c2cc(CC(=O)O)c(-c3ccc(-c4sc(-c5ccc(-c6ccccc6CC(=O)O)s5)cc4CC(=O)O)s3)s2)s1` [Example 56, 2-(2-{5-[3-(Carboxymethyl)-5-{5-[2-(carboxymethyl)phenyl]thiophen-2-yl}thiophen-2-yl]thiophen-2-yl}-5-{5-[2-(carboxymethyl)phenyl]thiophen-2-yl}thiophen-3-yl)acetic acid] showed an IC50 in experiment [1] of 3160 nM. Also, the results for the “Rescue of Abeta toxicity (MTT)” value in experiment [2] (setting [4]), in experiment [2] (setting [5]) and in experiment [2] (setting [6]) were “+”, “+++” and “+++”, respectively.

As for `O=C(O)CCc1ccsc1-c1ccc(-c2sc(-c3ccc(-c4cc(CCC(=O)O)c(-c5ccc(-c6sccc6CCC(=O)O)s5)s4)s3)cc2CCC(=O)O)s1` [Example 62, 3-(2-{5-[3-(2-Carboxyethyl)-5-{5-[4-(2-carboxyethyl)-5-{5-[3-(2-carboxyethyl)thiophen-2-yl]thiophen-2-yl}thiophen-2-yl]thiophen-2-yl}thiophen-2-yl]thiophen-2-yl}thiophen-3-yl)propanoic acid], in experiment [1], the IC50 is 398 nM. The “Rescue of Abeta toxicity (MTT)” value is reported as “++” in experiment [2] (setting [4]) and “+++” in experiment [2] (setting [5]).

As a reminder, the pIC50 is the IC50 on a negative log10 scale, so that one unit is a factor of ten. Take `O=C(O)Cc1cc(-c2cccs2)sc1-c1ccc(-c2sc(-c3cccs3)cc2CC(=O)O)s1` [p-HTAA, reference compound]: the pIC50 in experiment [1] is 5.7. The anti-prion potential result in experiment [3] is recorded as “pronounced anti-prion potential”.
